According to patent US10385034B2, “Flavonoid IL-17A inhibitors” (THE CLEVELAND CLINIC FOUNDATION, priority 2014, dated 2019):
“Also recorded” adds a separate entry of the source. Read-outs that look alike come from different tables or passages of the source. One block for each compound: values may come before it.

How the values were obtained:
IL-17A-IL-17RA binding = target: T1, IL-17A-IL-17RA binding (Homo sapiens, UniProt Q96F46); assay: IL-17A-IL-17RA binding assay (ELISA); details: for IC50: in vitro inhibition assay; for Inhibition of IL-17A-IL-17RA binding: serial dilutions of compound
T1 construct: human IL-17RA-Fc (extracellular domain 1-322 AA fused with Fc region of human IgG1 at the C-terminus); purchased Sino Biological Inc
T1 sequence (Q96F46 33-322): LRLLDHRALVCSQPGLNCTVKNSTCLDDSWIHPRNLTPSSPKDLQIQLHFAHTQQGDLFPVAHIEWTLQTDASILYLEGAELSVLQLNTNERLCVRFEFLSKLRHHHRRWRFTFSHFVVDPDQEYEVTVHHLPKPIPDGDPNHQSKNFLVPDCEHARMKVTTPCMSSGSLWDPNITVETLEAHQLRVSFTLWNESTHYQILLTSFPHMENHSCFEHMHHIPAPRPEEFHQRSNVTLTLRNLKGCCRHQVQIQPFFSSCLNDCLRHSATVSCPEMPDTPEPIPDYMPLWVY
Description: IL-17A-IL-17RA binding assay. ELISA plates were coated with human IL-17A or IL-17E (2 μg/ml in PBS). Human IL-17RA-Fc or human IL-17RB-Fc (150 ng/ml) were added and incubated for 1 h, followed by incubation with human HRP-conjugated anti human IgG Fc secondary antibody for 1 h. ELISA were finally developed using tetramethylbenzidine substrate.

[1] = target: T2, recombinant human IL-17RA ectodomain (Homo sapiens, UniProt Q96F46); assay: Fluorescence binding measurement (fluorescence quenching); details: one-site total binding fit
T2 construct: The recombinant human IL-17RA ectodomain was expressed in baculovirus-infected Sf-9 cells; made in house; host or cells: baculovirus-infected Sf-9 cells
T2 sequence (Q96F46 33-320 limits assumed): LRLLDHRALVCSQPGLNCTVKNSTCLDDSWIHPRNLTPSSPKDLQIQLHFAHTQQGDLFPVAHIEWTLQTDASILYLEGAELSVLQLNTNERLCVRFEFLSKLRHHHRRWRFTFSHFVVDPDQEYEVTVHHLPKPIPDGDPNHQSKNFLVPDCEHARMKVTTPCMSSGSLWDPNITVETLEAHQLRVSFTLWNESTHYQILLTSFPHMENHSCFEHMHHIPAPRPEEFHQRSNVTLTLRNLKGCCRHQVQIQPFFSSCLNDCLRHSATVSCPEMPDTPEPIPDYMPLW
Description: Fluorescence binding measurement. The recombinant human IL-17RA ectodomain was expressed in baculovirus-infected Sf-9 cells and purified as described previously. Liu et al., Nat Commun 4, 1888 (2013). The compound A18 or A0 was obtained from NCI. The purified IL-17RA protein (final concentration at 1 uM) was mixed with various concentrations of compound A0 in the solution consisting of 20 mM Tris, pH 7.5, 150 mM NaCl, and 5% DMSO in a 96-well black flat-bottom microplate (Greiner Bio-One). The reaction mixtures were incubated at room temperature at 120 rpm for 10 min, and fluorescence intensity was measured on a 2300 EnSpire Multimode Plate Reader (PerkinElmer) with excitation (265 nm) and emission (336 nm) wavelengths for A18 or with excitation (240 nm) and emission (337 nm) wavelengths for A0. The fluorescence signal (relative fluorescence intensity) was obtained by subtracting the background fluorescence of buffer and compound A0, and plotted as a function of the concentration of compound A0. The fluorescence quenching was observed as a consequence of the protein-ligand interaction at dose-dependent concentrations of compound A0, and the binding constant of compound A0 to IL-17RA was estimated by one-site total binding fit model (GraphPad Prism).

[2] = system: human mammary epithelial cells (HMEC); assay: IL-17A-induced CXCL1 (Groα) production, ELISA; assay type: cell-based; details: IL-17 100 ng/ml, 24 h
Source text: (§1) Reagents, cell culture and mice. Purified proteins of human IL-17A, human IL-17E (IL-25), human IL-17RA-Fc (extracellular domain 1-322 AA fused with Fc region of human IgG1 at the C-terminus), human IL-17RB-Fc (extracellular domain 1-289 AA fused with Fc region of human IgG1 at the C-terminus), human horseradish peroxidase (HRP)-conjugated IgG Fc secondary antibody were purchased from Sino Biological Inc. Human and mouse IL-17A and mouse IL-23 used for cell culture and animal injection were purchased from R&D Systems. Human mammary epithelial cells were maintained in Medium 171 plus mammary epithelial growth supplement (MEGS) purchased from Invitrogen, which contain bovine pituitary extract (BPE) (0.4% v/v), recombinant human insulin-like growth factor-I (1 μg/ml), hydrocortisone (0.5 μg/ml) and human epidermal growth factor (3 ng/ml). A549 cells were maintained in RPMI supplemented with 10% FCS and 100 U/ml penicillin and 100 μg/ml streptomycin. All mice were obtained from Jackson laboratory.
(§2) ELISA. Groα and IL-17A levels were assayed by ELISA kits (R&D systems) according to the manufacturer's instruction.

A549 cells = assay: IL-17A-induced CXCL1 (Groα) production, ELISA; assay type: cell-based, human; details: A549, IL-17 100 ng/ml, 24 h
Source text: as §1, §2

[3] = system: IL-17F-induced gene expression; assay: IL-17F-induced gene expression in epithelial cells; assay type: cell-based, human; details: data not shown
psoriasis = details: patients; cited from earlier work
multiple sclerosis = details: 6-month, placebo-controlled trial, 73 patients; cited from earlier work
[4] = read-out: IC50, IL-17A-IL-17RA binding inhibition assay
[5] = read-out: IC50, IL-17A-IL-17RA binding assay

IC50 (IL-17A-IL-17RA binding; [4]): 956 nM
Binding constant to IL-17RA [1]: in the same range as A18
Compound: Oc1cc(O)c2c(c1)O[C@@H](c1ccc(O)c(O)c1)[C@H](O)C2 [A0, (2S,3R)-2-(3,4-dihydroxyphenyl)-3,4-dihydro-2H-chromene-3,5,7-triol]
Inhibition of IL-17A-IL-17RA binding (IL-17A-IL-17RA binding): excellent inhibition efficacy; also recorded: great inhibition efficacy
IL-17A-mediated CXCL1 production [2]: greatly inhibited
IL-17A-mediated CXCL1 production (A549 cells): greatly inhibited
IL-17F-induced gene expression [3]: able to block

IC50 (IL-17A-IL-17RA binding; [5]): > 30000 nM
Compound: Oc1ccc2cc(O)c(-c3ccc(O)c(O)c3)[o+]c2c1 [A18Δ5OH]

IC50 (IL-17A-IL-17RA binding; [4]): 96.4 nM
Compound: OC[C@H]1O[C@@H](Oc2cc3c(O)cc(O)cc3[o+]c2-c2ccc(O)c(O)c2)[C@H](O)[C@@H](O)[C@@H]1O [cyanidin-3-O-glucoside, reference compound]

IC50 (IL-17A-IL-17RA binding; [4]): 198 nM
Compound: Oc1cc(O)c2ccc(-c3ccc(O)c(O)c3)[o+]c2c1 [luteolinidin, reference compound]

IC50 (IL-17A-IL-17RA binding; [5]): > 100000 nM
Compound: Oc1ccc(-c2[o+]c3cc(O)cc(O)c3cc2O)cc1 [pelargonidin, reference compound]

Compound: O=C(O)c1ccc(O)c(O)c1 [photocatechuic acid, reference compound]
Inhibition of IL-17A-IL-17RA binding (IL-17A-IL-17RA binding): greatly reduced inhibitory activity

Compound: secukinumab: Anti-IL17A antibody (Cosentyx/secukinumab from Novartis)
Efficacy for psoriasis (psoriasis): extreme efficacy
Responding rate in psoriasis (psoriasis): greater than 85%
MS-type brain lesions (multiple sclerosis): significantly lowered
Relapse rates (multiple sclerosis): trend toward reduced
